From publication PMC10482691, “LTP induction by structural rather than enzymatic functions of CaMKII” (Nature, 2023)
Values joined by “and” are separate entries in the source; they are usually repeats but may differ in a detail not shown here. Equal values may be shown once.

What was measured:
[1] = test system: paCaMKII binding to GST-2BC; experiment: Blue light-induced paCaMKII pulldown to immobilized GST-2BC; settings: Dark, 100 µM ADP
From the text: Extended Data Fig. 1 paCaMKII photoactivation-induced sLTP requires GluN2B binding. Data are presented as mean values +/− SEM. a, Representative images of GFP-paCaMKII WT and mCherry-2BC expressed in cultured hippocampal neurons before and after blue light stimulation. Time course of correlation indices of GFP-paCaMKII and mCh-2BC after photoactivation. Images were acquired in a single plane ever 10 s (n = 4 cells). Scale bar indicates 10 µm. b, Schematic of blue light-induced paCaMKII pulldown to immobilized GST-2BC. c, Binding of […] to immobilized GST-2BC was induced by blue light in the presence of either 100 ADP µM alone or without nucleotide. (n = 4 independent samples; *p < 0.05; one-way Kruskal Wallis with Dunn’s comparison test). Dark:Light+ADP p = 0.0132; Dark:Light-ADP p = 0.1860; Light+ADP:Light-ADP p = 0.9779. d, Schematic of how K42M and I205K CaMKII mutations affect enzymatic activity and the induction of GluN2B binding. e, Representative images of dissociated mouse WT and GluN2B^ΔCaMKII hippocampal cultures expressing GFP-paCaMKII WT and mCherry cell fill before and after photoactivation. Scale bar indicates 5 µm. n = 9, 9 cells; See Fig. 1f, g (right) for quantification. Source data

[2] = biological target: purified CaMKIIα binding to GST–GluN2B-c WT (Homo sapiens, UniProt Q9UQM7); experiment: CaMKII binding to immobilized GST–GluN2B-c in vitro; settings: for bound CaMKIIα (immunoblot, relative): Ca2+/CaM
Protocol: CaMKII–GluN2B binding assays were done as described[9],[13],[25]. Briefly, GST–GluN2B-c tail (GST–2BC) was immobilized on anti-GST antibody-coated microtiter plates (Thermo Scientific), blocked for 30 min with 5% BSA and then overlaid with […] CaMKII (subunit concentration) in PIPES-buffered saline (pH 7.2) containing 2 mM Ca^2+, 1 μM CaM, 1 mM Mg^2+, 0.1% BSA and 0.1% Tween-20 for 20 min at room temperature. […] After extensive washes in buffer containing 1 mM EGTA, GST–2BC and bound CaMKII were eluted for 10 min in SDS loading buffer at 95 °C. Bound CaMKII was measured via immunoblot.

PKG1β(h) = PKG1β(h) (Homo sapiens, UniProt Q13976); experiment: Kinase selectivity panel (residual activity at 1 μM); type: biochemical; settings: inhibitor at 1 μM; read-out: residual kinase activity in % of maximal activity
CaMKIV(h) = CaMKIV(h) (Homo sapiens, UniProt Q16566); experiment: as above; type: biochemical; settings: inhibitor at 1 μM; read-out: residual kinase activity in % of maximal activity
CDK2/cyclinE(h) = CDK2/cyclinE(h) (Homo sapiens, UniProt P24941); experiment: as above; type: biochemical; settings: inhibitor at 1 μM
Flt3(h) = Flt3(h) (Homo sapiens, UniProt P36888); experiment: as above; type: biochemical; settings: inhibitor at 1 μM; read-out: residual kinase activity in % of maximal activity
SAPK2a(h) = SAPK2a(h) (Homo sapiens, UniProt Q16539); experiment: as above; type: biochemical; settings: inhibitor at 1 μM
PDK1(h) = PDK1(h) (Homo sapiens, UniProt O15530); experiment: as above; type: biochemical; settings: inhibitor at 1 μM; read-out: residual kinase activity in % of maximal activity
ROCK-II(h) = ROCK-II(h) (Homo sapiens, UniProt O75116); experiment: as above; type: biochemical; settings: inhibitor at 1 μM; read-out: residual kinase activity in % of maximal activity
CaMKIIδ(h) = CaMKIIδ(h) (Homo sapiens, UniProt Q13557); experiment: as above; type: biochemical; settings: inhibitor at 1 μM; read-out: residual kinase activity in % of maximal activity
[3] = test system: GFP–CaMKII in rat hippocampal neurons; experiment: cLTP-induced CaMKII synaptic enrichment in dissociated hippocampal cultures (GFP–CaMKII WT); type: cell-based; settings: AS105
KDR(h) = KDR(h) (Homo sapiens, UniProt P35968); experiment: Kinase selectivity panel (residual activity at 1 μM); type: biochemical; settings: inhibitor at 1 μM; read-out: residual kinase activity in % of maximal activity
Pim-3(h) = Pim-3(h) (Homo sapiens, UniProt Q86V86); experiment: as above; type: biochemical; settings: inhibitor at 1 μM; read-out: residual kinase activity in % of maximal activity
p70S6K(h) = p70S6K(h) (Homo sapiens, UniProt P23443); experiment: as above; type: biochemical; settings: inhibitor at 1 μM; read-out: residual kinase activity in % of maximal activity
cKit(h) = cKit(h) (Homo sapiens, UniProt P10721); experiment: as above; type: biochemical; settings: inhibitor at 1 μM; read-out: residual kinase activity in % of maximal activity
MEK1(h) = MEK1(h) (Homo sapiens, UniProt Q02750); experiment: as above; type: biochemical; settings: inhibitor at 1 μM; read-out: residual kinase activity in % of maximal activity
CaMKIIγ(h) = CaMKIIγ(h) (Homo sapiens, UniProt Q13555); experiment: as above; type: biochemical; settings: inhibitor at 1 μM; read-out: residual kinase activity in % of maximal activity
CaMKIIβ(h) = CaMKIIβ(h) (Homo sapiens, UniProt Q13554); experiment: as above; type: biochemical; settings: inhibitor at 1 μM; read-out: residual kinase activity in % of maximal activity
PDGFRβ(h) = PDGFRβ(h) (Homo sapiens, UniProt P09619); experiment: as above; type: biochemical; settings: inhibitor at 1 μM; read-out: residual kinase activity in % of maximal activity
FGFR1(h) = FGFR1(h) (Homo sapiens, UniProt P11362); experiment: as above; type: biochemical; settings: inhibitor at 1 μM; read-out: residual kinase activity in % of maximal activity
Aurora-C(h) = Aurora-C(h) (Homo sapiens, UniProt Q9UQB9); experiment: as above; type: biochemical; settings: inhibitor at 1 μM; read-out: residual kinase activity in % of maximal activity
JNK2α2(h) = JNK2α2(h) (Homo sapiens, UniProt P45984); experiment: as above; type: biochemical; settings: inhibitor at 1 μM
MAPK1(h) = MAPK1(h) (Homo sapiens, UniProt P27361); experiment: as above; type: biochemical; settings: inhibitor at 1 μM; read-out: residual kinase activity in % of maximal activity
IGF-1R(h) = IGF-1R(h) (Homo sapiens, UniProt P08069); experiment: as above; type: biochemical; settings: inhibitor at 1 μM; read-out: residual kinase activity in % of maximal activity
AMPKα1(h) = AMPKα1(h) (Homo sapiens, UniProt Q13131); experiment: as above; type: biochemical; settings: inhibitor at 1 μM; read-out: residual kinase activity in % of maximal activity
MAPK2(h) = MAPK2(h) (Homo sapiens, UniProt P28482); experiment: as above; type: biochemical; settings: inhibitor at 1 μM; read-out: residual kinase activity in % of maximal activity
PKBγ(h) = PKBγ(h) (Homo sapiens, UniProt Q9Y243); experiment: as above; type: biochemical; settings: inhibitor at 1 μM; read-out: residual kinase activity in % of maximal activity
GSK3α(h) = GSK3α(h) (Homo sapiens, UniProt P49840); experiment: as above; type: biochemical; settings: inhibitor at 1 μM; read-out: residual kinase activity in % of maximal activity
PKCδ(h) = PKCδ(h) (Homo sapiens, UniProt Q05655); experiment: as above; type: biochemical; settings: inhibitor at 1 μM; read-out: residual kinase activity in % of maximal activity
CDK5/p35(h) = CDK5/p35(h) (Homo sapiens, UniProt Q00535); experiment: as above; type: biochemical; settings: inhibitor at 1 μM; read-out: residual kinase activity in % of maximal activity
JAK3(h) = JAK3(h) (Homo sapiens, UniProt P52333); experiment: as above; type: biochemical; settings: inhibitor at 1 μM; read-out: residual kinase activity in % of maximal activity
SGK(h) = SGK(h) (Homo sapiens, UniProt O00141); experiment: as above; type: biochemical; settings: inhibitor at 1 μM; read-out: residual kinase activity in % of maximal activity
mTOR(h) = mTOR(h) (Homo sapiens, UniProt P42345); experiment: as above; type: biochemical; settings: inhibitor at 1 μM; read-out: residual kinase activity in % of maximal activity
Ret(h) = Ret(h) (Homo sapiens, UniProt P07949); experiment: as above; type: biochemical; settings: inhibitor at 1 μM; read-out: residual kinase activity in % of maximal activity
CaMKI(h) = CaMKI(h) (Homo sapiens, UniProt Q14012); experiment: as above; type: biochemical; settings: inhibitor at 1 μM; read-out: residual kinase activity in % of maximal activity
FAK(h) = FAK(h) (Homo sapiens, UniProt Q05397); experiment: as above; type: biochemical; settings: inhibitor at 1 μM; read-out: residual kinase activity in % of maximal activity
[4] = biological target: PI3 Kinase (p110a/p85a)(h) (Homo sapiens, UniProt P42336); experiment: as above; type: biochemical; settings: inhibitor at 1 μM; read-out: residual kinase activity in % of maximal activity
PAK2(h) = PAK2(h) (Homo sapiens, UniProt Q13177); experiment: as above; type: biochemical; settings: inhibitor at 1 μM; read-out: residual kinase activity in % of maximal activity
GSK3β(h) = GSK3β(h) (Homo sapiens, UniProt P49841); experiment: as above; type: biochemical; settings: inhibitor at 1 μM; read-out: residual kinase activity in % of maximal activity
Pim-1(h) = Pim-1(h) (Homo sapiens, UniProt P11309); experiment: as above; type: biochemical; settings: inhibitor at 1 μM; read-out: residual kinase activity in % of maximal activity
PKCα(h) = PKCα(h) (Homo sapiens, UniProt P17252); experiment: as above; type: biochemical; settings: inhibitor at 1 μM; read-out: residual kinase activity in % of maximal activity
PKG1α(h) = PKG1α(h) (Homo sapiens, UniProt Q13976); experiment: as above; type: biochemical; settings: inhibitor at 1 μM; read-out: residual kinase activity in % of maximal activity
Arg(h) = Arg(h) (Homo sapiens, UniProt P42684); experiment: as above; type: biochemical; settings: inhibitor at 1 μM; read-out: residual kinase activity in % of maximal activity
JAK2(h) = JAK2(h) (Homo sapiens, UniProt O60674); experiment: as above; type: biochemical; settings: inhibitor at 1 μM

Chain of GSK3α(h) (P49840 whole entry): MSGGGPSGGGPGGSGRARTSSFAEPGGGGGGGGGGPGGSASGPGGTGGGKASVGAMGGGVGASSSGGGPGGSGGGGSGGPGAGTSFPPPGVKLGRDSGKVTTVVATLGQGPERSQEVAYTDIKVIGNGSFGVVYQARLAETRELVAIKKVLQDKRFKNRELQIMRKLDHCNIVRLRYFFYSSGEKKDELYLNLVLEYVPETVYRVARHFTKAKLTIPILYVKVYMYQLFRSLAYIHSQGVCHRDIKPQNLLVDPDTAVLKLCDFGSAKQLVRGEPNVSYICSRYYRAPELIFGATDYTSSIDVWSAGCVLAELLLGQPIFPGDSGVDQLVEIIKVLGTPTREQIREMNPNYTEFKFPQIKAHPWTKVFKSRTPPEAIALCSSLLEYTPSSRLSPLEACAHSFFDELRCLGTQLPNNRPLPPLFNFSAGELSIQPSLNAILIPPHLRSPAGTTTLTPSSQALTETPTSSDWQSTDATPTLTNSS
Chain of p70S6K(h) (P23443 whole entry): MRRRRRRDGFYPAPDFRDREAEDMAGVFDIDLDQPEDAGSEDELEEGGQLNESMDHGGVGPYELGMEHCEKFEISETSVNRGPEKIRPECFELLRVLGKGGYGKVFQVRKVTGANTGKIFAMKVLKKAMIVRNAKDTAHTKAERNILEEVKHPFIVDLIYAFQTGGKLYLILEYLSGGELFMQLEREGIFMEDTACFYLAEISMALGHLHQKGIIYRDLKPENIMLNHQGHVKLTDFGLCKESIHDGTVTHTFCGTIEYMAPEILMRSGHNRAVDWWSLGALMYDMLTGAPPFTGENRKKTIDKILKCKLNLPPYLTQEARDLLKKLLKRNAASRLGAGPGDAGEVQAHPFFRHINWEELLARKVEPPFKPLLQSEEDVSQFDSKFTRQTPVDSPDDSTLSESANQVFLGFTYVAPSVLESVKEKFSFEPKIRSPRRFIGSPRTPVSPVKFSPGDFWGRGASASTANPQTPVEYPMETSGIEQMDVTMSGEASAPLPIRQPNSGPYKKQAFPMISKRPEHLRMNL
Chain of PI3 Kinase (p110a/p85a)(h) (P42336 whole entry): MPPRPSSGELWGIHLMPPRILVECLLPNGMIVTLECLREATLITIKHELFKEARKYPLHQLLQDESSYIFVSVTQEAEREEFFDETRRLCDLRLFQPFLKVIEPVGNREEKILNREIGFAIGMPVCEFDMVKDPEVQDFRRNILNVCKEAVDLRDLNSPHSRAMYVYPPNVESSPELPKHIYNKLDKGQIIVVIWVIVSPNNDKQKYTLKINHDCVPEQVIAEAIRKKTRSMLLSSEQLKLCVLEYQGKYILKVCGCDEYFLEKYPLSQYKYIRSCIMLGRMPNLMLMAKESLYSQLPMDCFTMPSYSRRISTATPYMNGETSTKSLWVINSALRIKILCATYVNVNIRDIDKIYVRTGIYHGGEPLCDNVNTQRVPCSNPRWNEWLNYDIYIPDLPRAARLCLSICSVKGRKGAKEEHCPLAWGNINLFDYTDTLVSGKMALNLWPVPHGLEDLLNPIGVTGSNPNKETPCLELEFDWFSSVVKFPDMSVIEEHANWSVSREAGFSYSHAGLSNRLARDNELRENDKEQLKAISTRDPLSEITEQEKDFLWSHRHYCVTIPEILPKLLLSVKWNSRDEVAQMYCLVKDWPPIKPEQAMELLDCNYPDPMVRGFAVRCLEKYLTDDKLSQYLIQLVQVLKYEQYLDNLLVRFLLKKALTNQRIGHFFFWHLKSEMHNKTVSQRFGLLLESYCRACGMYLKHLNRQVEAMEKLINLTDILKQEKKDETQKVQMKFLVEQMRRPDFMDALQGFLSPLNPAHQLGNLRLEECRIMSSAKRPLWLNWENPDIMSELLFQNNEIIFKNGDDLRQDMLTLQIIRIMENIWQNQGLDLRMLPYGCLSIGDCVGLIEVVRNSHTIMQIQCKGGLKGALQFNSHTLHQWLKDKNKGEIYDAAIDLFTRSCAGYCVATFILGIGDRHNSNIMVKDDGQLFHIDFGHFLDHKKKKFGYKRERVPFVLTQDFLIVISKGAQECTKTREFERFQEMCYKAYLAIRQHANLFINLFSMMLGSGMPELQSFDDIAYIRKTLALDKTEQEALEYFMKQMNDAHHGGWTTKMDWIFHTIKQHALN
Chain of PI3 Kinase (p110a/p85a)(h) (P27986 whole entry partner): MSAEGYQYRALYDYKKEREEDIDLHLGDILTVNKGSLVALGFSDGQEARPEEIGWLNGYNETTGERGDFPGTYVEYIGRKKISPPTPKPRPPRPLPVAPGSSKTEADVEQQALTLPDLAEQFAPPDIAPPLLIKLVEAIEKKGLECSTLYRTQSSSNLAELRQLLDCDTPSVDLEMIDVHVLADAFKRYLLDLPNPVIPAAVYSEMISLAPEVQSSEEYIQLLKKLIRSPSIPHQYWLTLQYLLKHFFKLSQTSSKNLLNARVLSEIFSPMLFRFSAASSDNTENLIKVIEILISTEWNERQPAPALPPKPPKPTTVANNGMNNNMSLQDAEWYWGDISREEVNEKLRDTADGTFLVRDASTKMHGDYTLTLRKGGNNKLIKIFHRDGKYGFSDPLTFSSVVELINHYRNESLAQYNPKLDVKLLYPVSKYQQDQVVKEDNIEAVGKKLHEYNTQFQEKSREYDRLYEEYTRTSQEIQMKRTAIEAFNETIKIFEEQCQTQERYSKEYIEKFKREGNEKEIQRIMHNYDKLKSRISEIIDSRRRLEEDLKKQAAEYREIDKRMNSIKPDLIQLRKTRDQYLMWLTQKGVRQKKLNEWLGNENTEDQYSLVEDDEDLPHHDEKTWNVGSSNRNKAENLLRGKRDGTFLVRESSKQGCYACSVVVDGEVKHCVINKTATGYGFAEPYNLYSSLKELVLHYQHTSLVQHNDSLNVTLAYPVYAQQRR
Chain of CaMKI(h) (Q14012 whole entry): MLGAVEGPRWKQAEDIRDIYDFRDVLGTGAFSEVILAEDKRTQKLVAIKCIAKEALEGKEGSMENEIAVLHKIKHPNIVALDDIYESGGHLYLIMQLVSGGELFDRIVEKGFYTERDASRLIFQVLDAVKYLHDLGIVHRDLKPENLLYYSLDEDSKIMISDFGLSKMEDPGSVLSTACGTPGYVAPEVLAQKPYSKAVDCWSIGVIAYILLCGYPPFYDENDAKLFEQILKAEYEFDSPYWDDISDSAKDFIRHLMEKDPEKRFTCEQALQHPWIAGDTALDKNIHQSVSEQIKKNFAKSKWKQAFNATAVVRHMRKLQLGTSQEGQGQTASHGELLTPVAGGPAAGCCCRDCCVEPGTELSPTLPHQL
Chain of Aurora-C(h) (Q9UQB9 whole entry): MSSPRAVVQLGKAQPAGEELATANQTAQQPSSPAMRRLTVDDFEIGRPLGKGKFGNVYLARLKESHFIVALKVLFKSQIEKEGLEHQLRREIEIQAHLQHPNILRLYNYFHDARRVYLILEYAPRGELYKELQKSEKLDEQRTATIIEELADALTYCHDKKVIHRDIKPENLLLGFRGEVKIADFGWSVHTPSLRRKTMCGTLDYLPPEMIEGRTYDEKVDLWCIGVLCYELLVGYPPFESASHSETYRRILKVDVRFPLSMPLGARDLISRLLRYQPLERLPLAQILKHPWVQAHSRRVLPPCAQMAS
Chain of Flt3(h) (P36888 27-993): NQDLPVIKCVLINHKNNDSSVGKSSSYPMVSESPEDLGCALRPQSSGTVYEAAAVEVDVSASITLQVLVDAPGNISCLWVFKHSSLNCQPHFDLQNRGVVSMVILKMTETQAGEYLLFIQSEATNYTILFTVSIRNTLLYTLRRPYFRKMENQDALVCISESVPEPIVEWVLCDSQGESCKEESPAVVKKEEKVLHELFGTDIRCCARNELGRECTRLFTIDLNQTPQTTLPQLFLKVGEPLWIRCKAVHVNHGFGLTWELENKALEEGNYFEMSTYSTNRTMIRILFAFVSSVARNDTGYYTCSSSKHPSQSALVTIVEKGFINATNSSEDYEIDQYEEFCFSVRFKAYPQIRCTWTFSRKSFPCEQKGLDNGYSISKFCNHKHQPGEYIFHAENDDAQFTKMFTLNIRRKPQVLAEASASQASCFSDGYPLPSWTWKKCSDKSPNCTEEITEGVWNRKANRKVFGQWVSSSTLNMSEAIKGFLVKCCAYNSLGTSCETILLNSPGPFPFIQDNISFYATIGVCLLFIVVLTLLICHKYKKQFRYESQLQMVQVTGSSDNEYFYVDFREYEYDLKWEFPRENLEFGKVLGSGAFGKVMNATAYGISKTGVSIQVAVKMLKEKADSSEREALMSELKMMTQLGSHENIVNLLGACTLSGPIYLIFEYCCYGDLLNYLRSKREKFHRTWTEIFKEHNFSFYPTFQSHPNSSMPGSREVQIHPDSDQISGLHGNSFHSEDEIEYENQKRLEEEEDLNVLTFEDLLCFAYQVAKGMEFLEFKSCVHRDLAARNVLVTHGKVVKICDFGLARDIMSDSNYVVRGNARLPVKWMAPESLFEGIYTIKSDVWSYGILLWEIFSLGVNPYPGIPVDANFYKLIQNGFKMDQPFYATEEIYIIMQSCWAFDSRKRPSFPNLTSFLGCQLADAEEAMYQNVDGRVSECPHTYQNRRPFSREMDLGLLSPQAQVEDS
Chain of CaMKIIγ(h) (Q13555 whole entry): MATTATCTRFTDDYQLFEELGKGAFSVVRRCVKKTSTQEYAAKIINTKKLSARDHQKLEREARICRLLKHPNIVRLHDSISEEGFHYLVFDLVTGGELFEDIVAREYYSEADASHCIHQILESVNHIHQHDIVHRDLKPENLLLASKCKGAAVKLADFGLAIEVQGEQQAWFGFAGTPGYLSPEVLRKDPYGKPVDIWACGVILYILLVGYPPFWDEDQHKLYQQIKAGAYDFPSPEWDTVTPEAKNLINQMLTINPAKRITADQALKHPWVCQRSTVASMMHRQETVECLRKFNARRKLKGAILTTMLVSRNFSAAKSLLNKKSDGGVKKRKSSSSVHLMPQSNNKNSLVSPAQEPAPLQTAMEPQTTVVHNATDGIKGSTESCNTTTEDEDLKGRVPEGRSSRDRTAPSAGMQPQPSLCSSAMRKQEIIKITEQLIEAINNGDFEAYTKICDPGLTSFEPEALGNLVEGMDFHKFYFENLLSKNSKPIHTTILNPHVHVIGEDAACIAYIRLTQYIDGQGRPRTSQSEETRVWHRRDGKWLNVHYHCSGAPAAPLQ

In the case of Nc1ncnc2c1ncn2[C@@H]1O[C@H](COP(=O)(O)OP(=O)(O)O)[C@@H](O)[C@H]1O [ADP], the “binding to immobilized GST-2BC (immunoblot)” value [1] is reported as 54.536 and 63.536 and 53.536 and the “bound CaMKIIα (immunoblot, relative)” value ([2]; 4 mM ADP) is reported as 2.712 and 2.4126 and 1.817.

For NCCNc1cccc(-c2ccnc(Nc3cccc(Cl)c3)n2)c1 [AS105], the remaining activity at 1 µM (PKG1β(h)) was 68%, the remaining activity at 1 µM (CaMKIV(h)) was 101% and the “residual kinase activity in % of maximal activity” value (“residual kinase activity in %” below) (CDK2/cyclinE(h)) was 2%. The remaining activity at 1 µM (Flt3(h)) was 2%, the “residual kinase activity in %” value (SAPK2a(h)) was 99% and the remaining activity at 1 µM (PDK1(h)) was 109%. For the same compound, the remaining activity at 1 µM (ROCK-II(h)) was 43%, the remaining activity at 1 µM (CaMKIIδ(h)) was 2% and the “effect on stimulation-induced movement to excitatory synapses” value [3] was “without inhibiting”. For the same compound, the remaining activity at 1 µM (KDR(h)) was 28%, the remaining activity at 1 µM (Pim-3(h)) was 109% and the remaining activity at 1 µM (p70S6K(h)) was 77%. The remaining activity at 1 µM (cKit(h)) was 91%, the remaining activity at 1 µM (MEK1(h)) was 111% and the remaining activity at 1 µM (CaMKIIγ(h)) was 2%. For the same compound, the remaining activity at 1 µM (CaMKIIβ(h)) was 6%, the remaining activity at 1 µM (PDGFRβ(h)) was 80% and the “effect on GluN2B binding” value ([2]; AS105) was “without inhibiting”. For the same compound, the “bound CaMKIIα (immunoblot, relative)” value ([2]; 10 μM AS105, no nucleotide) was 2.79 and 2.715 and 1.563, the remaining activity at 1 µM (FGFR1(h)) was 91% and the remaining activity at 1 µM (Aurora-C(h)) was 57%. For the same compound, the “residual kinase activity in %” value (JNK2α2(h)) was 79%, the remaining activity at 1 µM (MAPK1(h)) was 105% and the remaining activity at 1 µM (IGF-1R(h)) was 121%. For the same compound, the remaining activity at 1 µM (AMPKα1(h)) was 38%, the remaining activity at 1 µM (MAPK2(h)) was 106% and the remaining activity at 1 µM (PKBγ(h)) was 76%. For the same compound, the remaining activity at 1 µM (GSK3α(h)) was 6%, the remaining activity at 1 µM (PKCδ(h)) was 73% and the remaining activity at 1 µM (CDK5/p35(h)) was 1%. The remaining activity at 1 µM (JAK3(h)) was 89%, the remaining activity at 1 µM (SGK(h)) was 97% and the remaining activity at 1 µM (mTOR(h)) was 102%. The remaining activity at 1 µM (Ret(h)) was 55%, the remaining activity at 1 µM (CaMKI(h)) was 83% and the remaining activity at 1 µM (FAK(h)) was 75%. It also gave a remaining activity at 1 µM [4] of 96%, a remaining activity at 1 µM (PAK2(h)) of 104% and a remaining activity at 1 µM (GSK3β(h)) of 11%. It also gave a remaining activity at 1 µM (Pim-1(h)) of 69%, a remaining activity at 1 µM (PKCα(h)) of 51% and a remaining activity at 1 µM (PKG1α(h)) of 61%. For the same compound, the remaining activity at 1 µM (Arg(h)) was 87% and the “residual kinase activity in %” value (JAK2(h)) was 134%.
